# Source: patent US20100298141A1, “SUBSTITUTED PYRIDINE N-OXIDE HERBICIDES” (E. I. DU PONT DE NEMOURS AND COMPANY, priority 2007, published 2010)
# Key:
# [1] = system: large crabgrass; assay: Test F preemergence test; format: in vivo, Digitaria sanguinalis; details: scale 0 to 100
# Method in brief: (§1)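 Preemergence application to planted seeds, or postemergence to sugarcane plants; compound in non-phytotoxic solvent mix plus surfactant. Greenhouse, 14-21 days. Visual rating vs. controls.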
# [2] = system: annual bluegrass; assay: Test F preemergence test; format: in vivo, Poa annua; details: scale 0 to 100
# Method in brief: as §1
# [3] = system: Virginia dayflower; assay: Test F preemergence test; format: in vivo, Commelina virginica; details: scale 0 to 100
# Method in brief: as §1
# [4] = system: purple nutsedge; assay: Test F preemergence test; format: in vivo, Cyperus rotundus; details: scale 0 to 100
# Method in brief: as §1
# [5] = system: bermudagrass; assay: Test F preemergence test; format: in vivo, Cynodon dactylon; details: scale 0 to 100
# Method in brief: as §1
# [6] = system: broadleaf signalgrass; assay: Test F preemergence test; format: in vivo, Brachiaria platyphylla; details: scale 0 to 100; for Plant response rating, Signalgrass: 31 g ai/ha
# Method in brief: as §1
# [7] = system: goosegrass; assay: Test F preemergence test; format: in vivo, Eleusine indica; details: scale 0 to 100
# Method in brief: as §1
# [8] = system: Surinam grass; assay: Test F preemergence test; format: in vivo, Brachiaria decumbens; details: scale 0 to 100; for Plant response rating, Surinam Grass: 31 g ai/ha
# Method in brief: as §1
# [9] = system: Italian ryegrass; assay: Test F preemergence test; format: in vivo, Lolium multiflorum; details: scale 0 to 100
# Method in brief: as §1
# [10] = system: rice; assay: Test C flooded paddy test; format: in vivo, Oryza sativa; details: Flood
# Method in brief: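 Visual injury ratings against untreated controls, taken 13 to 15 days after compound was added to paddy water standing 3 cm above the soil.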
# [11] = system: johnsongrass; assay: Test F preemergence test; format: in vivo, Sorghum halepense; details: scale 0 to 100
# Method in brief: as §1
# [12] = system: naked crabgrass; assay: Test F preemergence test; format: in vivo, Digitaria nuda; details: scale 0 to 100
# Method in brief: as §1
# [13] = system: pitted morningglory; assay: Test F preemergence test; format: in vivo, Ipomoea lacunosa; details: scale 0 to 100
# Method in brief: as §1
# [14] = system: common ragweed; assay: Test F preemergence test; format: in vivo, Ambrosia elation; details: scale 0 to 100
# Method in brief: as §1
# [15] = system: morningglory; assay: Test C pre-/postemergence test; format: in vivo, Ipomoea coccinea
# Method in brief: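 Seeds were planted and treated preemergence with test chemical in a non-phytotoxic solvent mixture containing surfactant. Postemergence applications of the same formulation went onto plants 2 to 18 cm tall (1- to 4-leaf stage). A dash marks no test result.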
# [16] = system: kochia; assay: Test F preemergence test; format: in vivo, Kochia scoparia; details: scale 0 to 100
# Method in brief: as §1
# [17] = 31 g ai/ha, scale 0 to 100 (0 no effect, 100 complete control)
# [18] = 62 g ai/ha, scale 0 to 100, 0 no effect, 100 complete control, 13 to 15 days
# [19] = 125 g ai/ha, scale 0 to 100, 0 no effect, 100 complete control, 13 to 15 days
compound,measurement,setting,value
Cc1cc[n+]([O-])c([S+]([O-])Cc2c(C(F)(F)F)nn(C)c2OCC(F)(F)F)c1 (racemic) [Compound 30],"Crabgrass, Large plant response rating","[1]; 62 g ai/ha, Preemergence",100
same,"Crabgrass, Large plant response rating","[1]; 125 g ai/ha, preemergence",100
same,"Plant response rating, Crabgrass, Large","[1]; Preemergence, 16 g ai/ha",40
same,"Plant response rating, Crabgrass, Large","[1]; Preemergence, 31 g ai/ha",50
same,Bluegrass plant response rating,"[2]; 62 g ai/ha, Preemergence",65
same,Bluegrass plant response rating,"[2]; 125 g ai/ha, preemergence",80
same,"Plant response rating, Bluegrass","[2]; Preemergence, 16 g ai/ha",35
same,"Plant response rating, Bluegrass","[2]; Preemergence, 31 g ai/ha",50
same,Dayflower plant response rating,"[3]; 62 g ai/ha, Preemergence",90
same,Dayflower plant response rating,"[3]; 125 g ai/ha, preemergence",100
same,"Plant response rating, Dayflower","[3]; Preemergence, 16 g ai/ha",50
same,"Plant response rating, Dayflower","[3]; Preemergence, 31 g ai/ha",70
same,Purple Nutsedge plant response rating,"[4]; 62 g ai/ha, Preemergence",70
same,Purple Nutsedge plant response rating,"[4]; 125 g ai/ha, preemergence",90
same,"Plant response rating, Purple Nutsedge","[4]; Preemergence, 16 g ai/ha",0
same,"Plant response rating, Purple Nutsedge","[4]; Preemergence, 31 g ai/ha",40
same,Bermudagrass plant response rating,"[5]; 62 g ai/ha, Preemergence",98
same,Bermudagrass plant response rating,"[5]; 125 g ai/ha, preemergence",100
same,"Plant response rating, Bermudagrass","[5]; Preemergence, 16 g ai/ha",40
same,"Plant response rating, Bermudagrass","[5]; Preemergence, 31 g ai/ha",80
same,Signalgrass plant response rating,"[6]; 62 g ai/ha, Preemergence",70
same,Signalgrass plant response rating,"[6]; 125 g ai/ha, preemergence",90
same,"Plant response rating, Signalgrass",[6]; Preemergence,65
same,Goosegrass plant response rating,"[7]; 62 g ai/ha, Preemergence",90
same,Goosegrass plant response rating,"[7]; 125 g ai/ha, preemergence",98
same,"Plant response rating, Goosegrass","[7]; Preemergence, 16 g ai/ha",40
same,"Plant response rating, Goosegrass","[7]; Preemergence, 31 g ai/ha",75
same,Surinam Grass plant response rating,"[8]; 62 g ai/ha, Preemergence",80
same,Surinam Grass plant response rating,"[8]; 125 g ai/ha, preemergence",100
same,"Plant response rating, Surinam Grass",[8]; Preemergence,75
same,"Ryegrass, Italian plant response rating","[9]; 62 g ai/ha, Preemergence",80
same,"Ryegrass, Italian plant response rating","[9]; 125 g ai/ha, preemergence",95
same,"Plant response rating, Ryegrass, Italian","[9]; Preemergence, 16 g ai/ha",60
same,"Plant response rating, Ryegrass, Italian","[9]; Preemergence, 31 g ai/ha",70
same,"Plant response rating, Rice",[10]; [17],0
same,"Plant response rating, Rice",[10]; [18],0
same,"Plant response rating, Rice",[10]; [19],20
same,"Plant response rating, Rice","[10]; 250 g ai/ha, scale 0 to 100, 0 no effect, 100 complete control, 13 to 15 days",80
same,Johnsongrass plant response rating,"[11]; 62 g ai/ha, Preemergence",80
same,Johnsongrass plant response rating,"[11]; 125 g ai/ha, preemergence",100
same,"Plant response rating, Johnsongrass","[11]; Preemergence, 16 g ai/ha",40
same,"Plant response rating, Johnsongrass","[11]; Preemergence, 31 g ai/ha",60
same,"Crabgrass, Naked plant response rating","[12]; 62 g ai/ha, Preemergence",100
same,"Crabgrass, Naked plant response rating","[12]; 125 g ai/ha, preemergence",100
same,"Plant response rating, Crabgrass, Naked","[12]; Preemergence, 16 g ai/ha",80
same,"Plant response rating, Crabgrass, Naked","[12]; Preemergence, 31 g ai/ha",98
same,Morningglory plant response rating,"[13]; 62 g ai/ha, Preemergence",90
same,Morningglory plant response rating,"[13]; 125 g ai/ha, preemergence",100
same,"Plant response rating, Morningglory","[13]; Preemergence, 16 g ai/ha",20
same,"Plant response rating, Morningglory","[13]; Preemergence, 31 g ai/ha",60
same,Ragweed plant response rating,"[14]; 62 g ai/ha, Preemergence",80
same,Ragweed plant response rating,"[14]; 125 g ai/ha, preemergence",95
same,"Plant response rating, Ragweed","[14]; Preemergence, 16 g ai/ha",50
same,"Plant response rating, Ragweed","[14]; Preemergence, 31 g ai/ha",60
same,Morningglory plant response rating,"[15]; 62 g ai/ha, Preemergence, scale 0 to 100",100
same,"Plant response rating, Morningglory","[15]; Preemergence, 31 g ai/ha, scale 0 to 100 (0 no effect, 100 complete control)",100
same,Kochia plant response rating,"[16]; 62 g ai/ha, Preemergence",95
same,Kochia plant response rating,"[16]; 125 g ai/ha, preemergence",95
same,"Plant response rating, Kochia","[16]; Preemergence, 16 g ai/ha",90
same,"Plant response rating, Kochia","[16]; Preemergence, 31 g ai/ha",90
Cc1cc[n+]([O-])c(S(=O)(=O)C(C)c2c(C(F)(F)F)nn(C)c2OC(F)F)c1 (stereo not shown) [Compound 11],"Crabgrass, Large plant response rating","[1]; 62 g ai/ha, Preemergence",98
same,"Crabgrass, Large plant response rating","[1]; 125 g ai/ha, preemergence",100
same,"Plant response rating, Crabgrass, Large","[1]; Preemergence, 16 g ai/ha",60
same,"Plant response rating, Crabgrass, Large","[1]; Preemergence, 31 g ai/ha",80
same,Bluegrass plant response rating,"[2]; 62 g ai/ha, Preemergence",60
same,Bluegrass plant response rating,"[2]; 125 g ai/ha, preemergence",90
same,"Plant response rating, Bluegrass","[2]; Preemergence, 16 g ai/ha",0
same,"Plant response rating, Bluegrass","[2]; Preemergence, 31 g ai/ha",30
same,Dayflower plant response rating,"[3]; 62 g ai/ha, Preemergence",100
same,Dayflower plant response rating,"[3]; 125 g ai/ha, preemergence",100
same,"Plant response rating, Dayflower","[3]; Preemergence, 16 g ai/ha",0
same,"Plant response rating, Dayflower","[3]; Preemergence, 31 g ai/ha",80
same,Purple Nutsedge plant response rating,"[4]; 62 g ai/ha, Preemergence",100
same,Purple Nutsedge plant response rating,"[4]; 125 g ai/ha, preemergence",100
same,"Plant response rating, Purple Nutsedge","[4]; Preemergence, 16 g ai/ha",25
same,"Plant response rating, Purple Nutsedge","[4]; Preemergence, 31 g ai/ha",65
same,Bermudagrass plant response rating,"[5]; 62 g ai/ha, Preemergence",98
same,Bermudagrass plant response rating,"[5]; 125 g ai/ha, preemergence",100
same,"Plant response rating, Bermudagrass","[5]; Preemergence, 16 g ai/ha",35
same,"Plant response rating, Bermudagrass","[5]; Preemergence, 31 g ai/ha",70
same,Signalgrass plant response rating,"[6]; 62 g ai/ha, Preemergence",75
same,Signalgrass plant response rating,"[6]; 125 g ai/ha, preemergence",75
same,"Plant response rating, Signalgrass",[6]; Preemergence,65
same,Goosegrass plant response rating,"[7]; 62 g ai/ha, Preemergence",98
same,Goosegrass plant response rating,"[7]; 125 g ai/ha, preemergence",100
same,"Plant response rating, Goosegrass","[7]; Preemergence, 16 g ai/ha",70
same,"Plant response rating, Goosegrass","[7]; Preemergence, 31 g ai/ha",90
same,Surinam Grass plant response rating,"[8]; 62 g ai/ha, Preemergence",100
same,Surinam Grass plant response rating,"[8]; 125 g ai/ha, preemergence",100
same,"Plant response rating, Surinam Grass",[8]; Preemergence,98
same,"Ryegrass, Italian plant response rating","[9]; 62 g ai/ha, Preemergence",75
same,"Ryegrass, Italian plant response rating","[9]; 125 g ai/ha, preemergence",95
same,"Plant response rating, Ryegrass, Italian","[9]; Preemergence, 16 g ai/ha",35
same,"Plant response rating, Ryegrass, Italian","[9]; Preemergence, 31 g ai/ha",50
same,"Plant response rating, Rice",[10]; [17],0
same,"Plant response rating, Rice",[10]; [18],70
same,"Plant response rating, Rice",[10]; [19],80
same,"Plant response rating, Rice","[10]; 250 g ai/ha, scale 0 to 100 (0 no effect, 100 complete control)",80
same,Johnsongrass plant response rating,"[11]; 62 g ai/ha, Preemergence",90
same,Johnsongrass plant response rating,"[11]; 125 g ai/ha, preemergence",95
same,"Plant response rating, Johnsongrass","[11]; Preemergence, 16 g ai/ha",70
same,"Plant response rating, Johnsongrass","[11]; Preemergence, 31 g ai/ha",70
same,"Crabgrass, Naked plant response rating","[12]; 62 g ai/ha, Preemergence",98
same,"Crabgrass, Naked plant response rating","[12]; 125 g ai/ha, preemergence",100
same,"Plant response rating, Crabgrass, Naked","[12]; Preemergence, 16 g ai/ha",90
same,"Plant response rating, Crabgrass, Naked","[12]; Preemergence, 31 g ai/ha",98
same,Morningglory plant response rating,"[13]; 62 g ai/ha, Preemergence",90
same,Morningglory plant response rating,"[13]; 125 g ai/ha, preemergence",100
same,"Plant response rating, Morningglory","[13]; Preemergence, 16 g ai/ha",0
same,"Plant response rating, Morningglory","[13]; Preemergence, 31 g ai/ha",30
same,Ragweed plant response rating,"[14]; 62 g ai/ha, Preemergence",75
same,Ragweed plant response rating,"[14]; 125 g ai/ha, preemergence",100
same,"Plant response rating, Ragweed","[14]; Preemergence, 16 g ai/ha",30
same,"Plant response rating, Ragweed","[14]; Preemergence, 31 g ai/ha",65
same,Morningglory plant response rating,"[15]; 31 g ai/ha, Preemergence, scale 0 to 100",98
same,Morningglory plant response rating,"[15]; 62 g ai/ha, preemergence, scale 0 (no effect) to 100 (complete control)",100
same,"Plant response rating (0 to 100), Morningglory","[15]; Preemergence, 250 g ai/ha",100
same,Morningglory plant response rating,"[15]; preemergence, 125 g ai/ha, scale 0 (no effect) to 100 (complete control)",100
same,Kochia plant response rating,"[16]; 125 g ai/ha, preemergence",100
same,"Plant response rating, Kochia","[16]; Preemergence, 16 g ai/ha",0
same,"Plant response rating, Kochia","[16]; Preemergence, 31 g ai/ha",100
